The experiment has as its system Bacillus subtilis. The experiment is described as follows: Antimicrobial activity against Bacillus subtilis. Type of experiment: functional, organism-based.

Each structure is given as a SMILES string. Active and inactive are the calls of the source. No cut-off for these calls is given here.

Take `CC(O)c1cc(O)c2c(c1O)C(=O)C=C(O)C2=O` (stereo unspecified): the result was inactive.

For the origin of these results see ChEMBL document CHEMBL1147269, “Cribrarione B, a new naphthoquinone pigment from the myxomycete Cribraria cancellata” (J Nat Prod, 2003).
